Consider one compound from patent publication US9695219B2, “Polypeptide having antibacterial activity and angiogenesis-inducing activity and wound-healing drug containing said polypeptide” (priority 2009, dated 2017).

One assay deals with cut-wound model, SD rats. The assay is described as follows: Evaluation of skin tissue in cut wound healing (HE staining). The note with it: 10 μg dropwise once a day until suture removal, skin collected Day 6. The format is in vivo, rat. How it is done:
A cut-wound model was produced using 7-week old male SD rats (Crl:CD), and the change in the skin tissue caused by administering the polypeptides of the present invention was evaluated. A cut wound of 30 to 36 mm was made on the back of the rats using a safety razor, and sutured at 3 points equally spaced (Day 0). Onto the suture site, 50 μL of each of the test substances which were respectively adjusted to the concentration of 200 μg/mL was added dropwise (the added amount was 10 μg). Each test substance was administered dropwise once a day till the day when the sutures were removed. On Day 3 after the suturing, the sutures were removed; and, on Day 6, the skin tissue in the cut wound site was collected to evaluate the skin by HE staining

Assay [1] has as its system paper disc model, Crl:CD (SD) rats. Nature of the assay: Ability to form granulation tissue in paper disc model. The format is in vivo, rat. Particulars: 1, 10 or 100 μg/disc, subcutaneous, eight days. The protocol: Then, the ability to form granulation tissue of these polypeptides in vivo was studied. Each of the peptides which were test substances and whose concentration was respectively 25, 250 and 2500 μg/mL, the bFGF formulation whose concentration was respectively 2.5, 25 and 250 μg/mL (positive controls) or saline (negative controls) was added to a paper disc (FILTER PAPER φ8 mm, […]) in an amount of 40 μl, such that, in the final state, the dosage of each peptide was 1, 10 or 100 μg/disc. The prepared paper discs were embedded subcutaneously into the back of Crl:CD (SD) rats (male, 9-week old, obtained from Charles River Laboratories Japan, Inc.). Eight days later, the paper discs were taken out, and the granulation tissues around the paper discs were collected to determine their wet weight.

In assay [2] the test system is Pseudomonas aeruginosa (clinical strain 6). The assay is described as follows: MIC measurement, broth microdilution. The format is cell-based. The note with it: 37° C. for 20 hours; tested twice, first/second value where not matched. On the technique in general: Dilution methods test growth across graded concentrations, often in twofold steps.
The subject of assay [3] is diabetes full-thickness defect flap model, hairless rats. Nature of the assay: Effect to heal diabetic skin ulcers in diabetes flap model. The note with it: 0.2 μg/μL. The format is in vivo, rat. The protocol:
For the purpose of producing a diabetes model, 7-week old male hairless rats (HWY/slc) were used, and, on the day before full-thickness defect flaps were created, the blood sugar level was measured and streptozotocin was administered once in tail vein (65 mg/kg). The full-thickness defect flap model was produced by measuring the blood sugar level of the rats on the day after the administration of streptozotocin and deciding only the individuals whose blood sugar level was not less than 300 mg/dL as the diabetes model. The full-thickness defect flaps were created by first creating on the back of each rat a pedicle flap of 2×2 cm (square) whose basal part was on its tail side, and then creating a full-thickness defect site (including dermal layer defect) of 1.4×1.4 cm (square: about 2 cm^2) in the central part of the created pedicle flap. Then, the flap sites were immediately sutured to obtain the full-thickness defect flap model. The model is a model of a diabetic intractable wound or skin ulcer, since the model also lacks dermal layer. […] Thereafter, on every measurement day, the test substance was administered once a day; the change of the area of the wound was calculated by measured values from a digital caliper and digital images; and the area where the wounds had still not healed was measured to calculate the ratio of it relative to the area where the wounds were created (Day 0).

Assay [4] concerns Pseudomonas aeruginosa (clinical strain 9). Nature of the assay: MIC measurement, broth microdilution. The format is cell-based. The note with it: 37° C. for 20 hours; tested twice, first/second value where not matched.
In assay [5] the test system is Staphylococcus epidermidis. The assay is described as follows: MIC measurement, broth microdilution. The class given is cell-based. Particulars: 37° C. for 20 hours; tested twice, first/second value where not matched. How it is done:
(§1) Further, with respect to not only the above-described strains but also various other strains, the “minimum inhibitory concentration (MIC)” was measured as follows. MIC is the lowest concentration of an agent that may inhibit the growth of a bacterium. MIC is used as a parameter for the efficacy of an antibacterial agent, for the strength of bacterial sensitivity, or the like. The bacteria can grow (proliferate) when the concentration is not higher than MIC, and cannot grow when the concentration is higher than MIC. Its measurement is carried out according to a method defined as a standard method by Japanese Society of Chemotherapy or CLINICAL AND LABORATORY […] (CLSI), but, in this Example, its measurement was carried out by a broth microdilution method in accordance with “M100-S17/M7-A7” (Performance Standards for Antimicrobial Susceptibility Testing; Seventeenth Informational Supplement, Vol. 27 No. 1) published by CLSI on January, 2007. That is, sensitivity test of agents was carried out using a microtiter plate or test tubes.
(§2) The bacteria were cultured in liquid media for 4 to 6 hours, and thereafter absorbances at A600 were measured. Bacterial suspensions were diluted with Mueller-Hinton broth (MHB) according to McFarland #0.5. Each strain was added so as to attain about 10^5 CFU/ml (final concentration). Each peptide was prepared to an optional concentration, and the solutions were serially diluted from the concentration. The polypeptide at each concentration stage was added to a microplate or test tubes, and the bacterial suspension was added thereto. Chloramphenicol, amphotericin B, ciprofloxacin, meropenem (MEPM), ciprofloxacin (CPFX), tobramycin (TOB) and oxacillin (OX) were used as positive controls. The plate was incubated at 37° C. for 20 hours, and the lowest concentration where bacterial growth was inhibited was regarded as the minimum inhibitory concentration.

The next assay relates to Escherichia coli. The assay is described as follows: MIC measurement, broth microdilution. The format is cell-based. The note with it: 37° C. for 20 hours; tested twice, first/second value where not matched. The protocol:
as §1, §2

Where a SMILES comes first, the peptide text is derived from it. [ ]: non-standard residue; d: D form.

Take `CC[C@H](C)[C@H](NC(=O)[C@H](CC(C)C)NC(=O)[C@H](CCCCN)NC(=O)[C@@H](N)CC(C)C)C(=O)N[C@@H](Cc1ccccc1)C(=O)N[C@@H](CC(C)C)C(=O)N[C@@H](Cc1c[nH]cn1)C(=O)N[C@@H](CCCNC(=N)N)C(=O)N[C@@H](CC(C)C)C(=O)N[C@@H](CCCCN)C(=O)N[C@@H](CCCNC(=N)N)C(=O)N[C@@H](CCSC)C(=O)N[C@@H](CCCNC(=N)N)C(=O)N[C@@H](CCCCN)C(=O)N[C@@H](CCCNC(=N)N)C(=O)N[C@@H](CC(C)C)C(=O)N[C@H](CCCCN)C(=O)N[C@@H](CCCNC(=N)N)C(=O)N[C@@H](CCCCN)C(N)=O` [SR-08] (H-LKLIFLHRLKRMRKRL[dK]RK-NH2; N-terminus assumed): in the assay on cut-wound model, SD rats, the “Granulation and collagen at cut wound site (HE staining)” value is given as “increased compared to Saline”; the “Thickening in stratum spinosum epidermidis (HE staining)” value is recorded as “less than the saline group”. In addition, the “Granulation tissue formation (wet weight around paper disc, FIGS. 5 and 6)” value in assay [1] is recorded as “promoted granulation tissue formation in vivo”. For the same compound, the “MIC, Pseudomonas aeruginosa (clinical strain 6)” value in assay [2] is 16/32. Moreover, the “Number of days until complete healing (FIGS. 12 and 13)” value in assay [3] is “significantly smaller than the solvent control group”. Moreover, in assay [4], the “MIC, Pseudomonas aeruginosa (clinical strain 9)” value is 16/64. Besides, the “MIC, Staphylococcus epidermidis” value in assay [5] is 8> μg/mL. Also, the “MIC, Escherichia coli” value in the assay with Escherichia coli is reported as 32/64.
